Experimental data published in article PMC5923171, “Novel Zinc-Attenuating Compounds as Potent Broad-Spectrum Antifungal Agents with In Vitro and In Vivo Efficacy” (Antimicrobial Agents and Chemotherapy, 2018).
Like-named read-outs stand apart in the source and are kept apart here.

Tests used:
A. fumigatus = test system: A. fumigatus; parameters: method as in PMID 27401578; settings: monotherapy; cited from earlier work
C. albicans SC5314 [1] = test: Time-kill assay; assay type: cell-based, Candida albicans; settings: 0.5 μg/ml AMB, 3.6 μg/ml ZAC989, 4.4 μg/ml EDTA, 4.2 μg/ml TPEN; up to 24 h
Description: C. albicans SC5314 cells (10^5 CFU/ml) were incubated in 10 ml of RPMI medium at 30°C with gentle agitation (150 rpm) in the presence of EDTA (15 μM), TPEN (10 μM), ZAC989 (10 μM), or AMB (0.5 μM). At the desired time points (0, 3, 5.5, and 24 h), a 100-μl aliquot was removed for each test condition and serially diluted (10-fold) in saline (0.9% NaCl), and 30 μl of each dilution was plated on YPD agar plates. The colony count on each YPD plate was determined after incubation at 30°C for 48 h ([40]). C. albicans cells treated with DMSO (1%, vol/vol) served as a control.

C. albicans = test: Resistance study (repeated exposure); assay type: cell-based, Candida albicans; settings: SDwoz medium, 36-day period, 22 passages
Description: The propensity for resistance development was investigated as also described previously ([41]), but with the following modifications. […] Over a 36-day period, culture aliquots of 100 μl were periodically (every 1 to 2 days) transferred (passaged) to new culture tubes with 900 μl of fresh medium and fresh compound. […] Cells were passaged a total of 22 times, and cultures were periodically tested for antifungal susceptibility by following the protocol for antifungal susceptibility testing, as described above.

Candida albicans SC5314 = test: In vivo fungal kidney burden candidiasis model; parameters: species or system BALB/c mice; settings: fluconazole 3 mg/kg p.o.
Description: A murine model of systemic candidiasis was established according to a previously described method ([44]). BALB/c mice were infected with a 0.1-ml inoculum (1 × 10^5 to 5 × 10^5 CFU) of Candida albicans SC5314 cells by the intravenous route on day 0. Compounds were tested at doses of 60 mg/kg. Administration of compound was initiated 24 h prior (day −1) to infection (day 0) by the intraperitoneal route, dosing twice a day for 4 days (day −1 to day 2). ZAC307 was also evaluated with administration of the compounds given after the infection at day 0 (no pretreatment) and following dosing twice a day for 3 days (days 0 to 2). Fluconazole was used as a comparator drug. Six mice were used for each group, and the untreated control group was exposed to the vehicle alone. ZAC989 and ZAC307 were formulated by taking 60 mg of compound and adding this to 2 ml and 4 ml of 0.1 N NaOH, respectively. After mixing and sonication of the resulting solutions, 4 ml of purified water was added. The pH was adjusted to 9.0 with 0.1 N HCl solution, followed by the addition of 90 mg of NaCl. The solutions were then diluted to 10 ml and filtered through a 0.22-μm polyvinylidene difluoride (PVDF) filter. Sample collection and processing were performed as follows. Twelve hours after the last dose, all treated and untreated animals were sacrificed by cervical dislocation and kidneys were collected in 3 ml of sterile normal saline. The samples were homogenized, serially diluted, and plated on Sabouraud dextrose agar (SDA). SDA plates were incubated for 24 to 48 h at 35°C, and CFU were enumerated and reported as log CFU/kidney. The endpoint was mean log CFU of fungi in kidneys of treated animals compared to that of untreated animals. The study was conducted in conformance with an application submitted to the Committee for the Purpose of Control and Supervision of Experiments on Animals (CPCSEA), New Delhi, India, after approval from the Institutional Animal Ethics Committee (IAEC).

[2] = Fluorescence-based competition assay using FluoZin-3 (compound-Zn2+ dissociation constant); assay type: binding; settings: FluoZin-3 competition, PBS pH 7.4, room temperature; read-out: Compound-Zn^2+ KD
Description: The dissociation constant (Kd) of zinc to zinc-attenuating compounds was determined at room temperature using FluoZin-3 (F24194; […] Testing buffer consisted of PBS (pH 7.4) with 200 nM ZnCl2 and 500 nM FluoZin-3. In a microtiter plate, 98 μl of testing buffer was mixed with 2 μl of compound at a range of concentrations to determine the half-maximal inhibitory concentration (IC50). Testing plates were incubated for 2 min before being read at an excitation wavelength of 485 nm and an emission wavelength of 516 nm with a Fluoroskan Ascent microplate fluorometer (Thermo Fisher Scientific).

[3] = test system: C. parapsilosis ATCC 22019; test: Antifungal susceptibility testing (MIC); assay type: cell-based, Candida parapsilosis; settings: Lodderomyces parapsilosis, ATCC22019; at least 50% growth inhibition, RPMI, 24 h, 34°C
Description: (§1) Antifungal susceptibility testing was carried out as described previously ([38], [39]), with a few modifications. Briefly, for each yeast or mold growth inhibition assay, frozen stocks of yeast cells or spores were diluted to a final concentration of 0.5 × 10^5 to 2.5 × 10^5 CFU/ml in sterile water. ZAC989, ZAC307, and ZAC623 were dissolved in DMSO to 10 mM stocks from which half-log serial dilutions were prepared. Growth assays were subsequently performed by pipetting 3 μl of compound dissolved in DMSO (giving a final concentration of 1.5% DMSO), 100 μl of cell-spore suspension, and 97 μl of 2× RPMI medium (20.8 g/liter of RPMI 1640 medium, 69.06 g/liter of morpholinepropanesulfonic acid [MOPS], 36 g/liter of glucose) into a microtiter plate that was incubated for 24 h (yeasts) or 48 to 72 h (molds) at 34°C. Fungal growth was determined spectrophotometrically by optical density reading of each well at a wavelength of 492 nm on a Victor X5 (Perkin-Elmer) plate reader. […] Standard errors between repeated experiments were generally below 5%. The growth effect of exogenous addition of various divalent metals was evaluated by performing the antifungal susceptibility assay in the presence of 5 μM ZAC989 or ZAC307 and with increasing concentrations (0.003 to 50 μM) of ZnSO4, CuSO4, (NH4)2Fe(SO4)2, MgCl2, and CaCl2.

C. albicans SC5314 [4] = test: Antifungal susceptibility testing (MIC); assay type: cell-based, Candida albicans
Description: as §1

C. krusei ATCC 6258 = test: Antifungal susceptibility testing (MIC); assay type: cell-based, Candida krusei; settings: Pichia kudriavzevii, ATCC6258; at least 50% growth inhibition, RPMI, 24 h, 34°C
Description: as §1

[5] = cited from earlier work

c1cnc2c(c1)ccc1cccnc12 [phenanthroline]
survival and fungal burden (A. fumigatus): significant improvements in survival with concomitant reduction in fungal burden

C[C@@H]1[C@H](O)[C@@H](C)/C=C/C=C/C=C/C=C/C=C/C=C/C=C/[C@H](O[C@@H]2O[C@H](C)[C@@H](O)[C@H](N)[C@@H]2O)C[C@@H]2O[C@](O)(C[C@@H](O)C[C@@H](O)[C@H](O)CC[C@@H](O)C[C@@H](O)CC(=O)O[C@H]1C)C[C@H](O)[C@H]2C(=O)O [amphotericin B]
time-kill activity (fungistatic or fungicidal) (C. albicans SC5314 [1]): fungicidal activity after 3 h of exposure

OC(Cn1cncn1)(Cn1cncn1)c1ccc(F)cc1F [Fluconazole, fluconazole, reference compound]
change in the MIC after repeated exposure (C. albicans): significant increase in the MIC
Mean log CFU/kidney (Candida albicans SC5314): 3.02 ± 0.22 log CFU/kidney
Mean log CFU/kidney reduction (Candida albicans SC5314; vs untreated control): 2.78 log CFU/kidney

Cc1cc(N)n(-c2cc(N3CC[C@H](Oc4cnccc4C#N)C3)ncn2)n1 [ZAC623, 3-[(3S)-1-[6-(5-amino-3-methyl-pyrazol-1-yl)pyrimidin-4-yl]pyrrolidin-3-yl]oxypyri-dine-4-carbonitrile]
Kd [2]: > 6000 nM
MIC [3]: > 54 µg/mL
growth-inhibitory activity (in words) (C. albicans SC5314 [4]): did not display growth-inhibitory activity
MIC (C. albicans SC5314 [4]; Candida albicans, SC5314, 24 h, at least 50% growth inhibition, RPMI, 24 h, 34°C, read-out: MIC): > 54 µg/mL
MIC (C. krusei ATCC 6258): > 54 µg/mL

COc1ccc(N(CC(=O)O)CC(=O)O)c(OCCOc2cc(-c3c4cc(F)c(=O)cc-4oc4cc(O)c(F)cc34)ccc2NCC(=O)O)c1 [FluoZin-3]
Kd ([5]; read-out: Kd (FluoZin-3–Zn^2+)): 15 nM

COc1cc(O)c(-c2nc3c(CNCc4ccccn4)cccc3o2)cc1OC [Zinbo-5]
Kd ([5]; read-out: affinity constant for zinc): 2.2 nM
